Starred links: 1 amine or outer side, 2 acyl side, 3 side chain; linkers in the order of their positions; H or OH if unused. Non-standard residues stand in square brackets, D forms with d. Residues, ends and D or L forms follow the SMILES beside them. Groups on a side chain read outwards from the residue. *: point of attachment. C20 diacid = O=C(O)CCCCCCCCCCCCCCCCCCC(=O)*; γGlu = O=C(O)[C@H](CCC(=O)[*:2])N[*:1]; Palmitoyl = CCCCCCCCCCCCCCCC(=O)*; NMeI = CC[C@H](C)[C@H](NC)C(=O)O
Molecular target: T1, human CRHR2b (Homo sapiens, UniProt Q13324)
T1 construct: expressed in transfected cells; host or cells: Chinese Hamster Ovary (CHO) cells, transient transfection
T1 sequence (Q13324 1-438 isoform Q13324-2): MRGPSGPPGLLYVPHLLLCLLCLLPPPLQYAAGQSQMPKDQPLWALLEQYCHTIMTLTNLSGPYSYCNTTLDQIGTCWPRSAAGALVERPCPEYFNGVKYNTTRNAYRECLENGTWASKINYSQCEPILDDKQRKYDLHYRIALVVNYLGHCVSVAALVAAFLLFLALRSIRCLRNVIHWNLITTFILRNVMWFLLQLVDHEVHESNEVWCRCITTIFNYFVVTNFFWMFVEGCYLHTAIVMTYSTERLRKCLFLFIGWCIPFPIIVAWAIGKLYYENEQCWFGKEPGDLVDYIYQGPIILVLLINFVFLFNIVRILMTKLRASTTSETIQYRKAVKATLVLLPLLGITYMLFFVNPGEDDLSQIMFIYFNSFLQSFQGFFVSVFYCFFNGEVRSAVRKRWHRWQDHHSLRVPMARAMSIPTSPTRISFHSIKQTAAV
Assay: human CRHR2b cell-based cAMP assay
Conditions: cAMP assay; Table 26, compounds of Example 9; read-out: hCRHR2b Average EC50
Protocol: CRHR agonistic activity is measured in a cell-based cAMP assay. Serial dilutions of the test peptides are made in assay buffer containing Hank's Balanced Salt Solution (HBSS, without phenol red) supplemented with 20 mM HEPES and 0.05% lactalbumin enzymatic hydrolysate (LAH) (“assay buffer”). […] A one to three dilution of the test peptides is used in both assays. Receptor over-expressing Chinese Hamster Ovary (CHO) cell line is used for the human CRHR2b assay. […] AF011406.1). Forty-eight hours after the transfection, the cells are centrifuged to remove the culture media and resuspended in fetal bovine serum containing 5% DMSO. They are cryofrozen and stored in vials in liquid nitrogen (20×10^6 cells/ml/vial). On the day of the assay, cells are thawed and resuspended in cold 30 ml culture media supplemented with 20 mM HEPES. The cells are then centrifuged to remove the media and washed once with HBSS supplemented with 20 mM HEPES. Finally, following the last centrifugation, the cells are resuspended in assay buffer. Thirty-thousand cells are used in the human CRHR2b assay for each treatment. The cells are dispensed into Costar 96-well black polystyrene half area EIA/RIA plates (Corning Incorporated, Corning, N.Y.) followed by the addition of the diluted peptides, each at a volume of 20 μL. The agonist induced cAMP levels are detected using a HTRF cAMP Dynamic 2 kit (CisBio, Bedford, Mass.). After incubation at 37° C. for 30 min, the assay is stopped by cell lysis via the addition of 20 μL of d2-labeled cAMP and followed by 20 μL of cryptate-labeled anti-cAMP antibody, as described by the manufacturer. Cellular cAMP (as a result of agonist stimulation) competes with the d2-labeled cAMP for binding to the antibody. HTRF detection is performed on an Envision plate reader (Perkin Elmer Life and Analytical Sciences, Waltham, Mass.) by measuring ratiometric emission at 620 and 665 nm after excitation at 320 nm. The data are converted to picomoles of cAMP using a standard curve obtained from the same assay performed with varying concentrations of unlabeled cAMP. […] The data are analyzed using a Curve Fitting Tool to calculate ED50. Numeric values shown below in Table 1 represent the mean of multiple runs (number of runs shown in parentheses) following the mean value±SEM.

Row | EC50 [nM] | SMILES
1 | 1.63 | CC[C@H](C)[C@H](NC)C(=O)N[C@H](C(=O)N[C@@H](CC(C)C)C(=O)N[C@@H](CO)C(=O)N[C@@H](CC(C)C)C(=O)N[C@@H](CC(=O)O)C(=O)N[C@H](C(=O)N1CCC[C@H]1C(=O)N[C@H](C(=O)NCC(=O)N[C@@H](CC(C)C)C(=O)N[C@@H](CC(C)C)C(=O)N[C@@H](CCC(N)=O)C(=O)N[C@H](C(=O)N[C@@H](CC(C)C)C(=O)N[C@@H](CC(C)C)C(=O)N[C@@H](CCC(=O)O)C(=O)N[C@@H](CCC(N)=O)C(=O)N[C@@H](CCC(=O)O)C(=O)N[C@@H](CCCCN)C(=O)N[C@@H](CCC(N)=O)C(=O)N[C@@H](CCC(=O)O)C(=O)N[C@@H](CCCCN)C(=O)N[C@@H](CCC(=O)O)C(=O)N[C@@H](CCCCN)C(=O)N[C@@H](CCC(N)=O)C(=O)N[C@@H](CCC(N)=O)C(=O)N[C@@H](C)C(=O)N[C@@H](CCCCNC(=O)CC[C@H](NC(=O)CC[C@H](NC(=O)CC[C@H](NC(=O)CC[C@H](NC(=O)CCCCCCCCCCCCCCCCCCC(=O)O)C(=O)O)C(=O)O)C(=O)O)C(=O)O)C(=O)N[C@H](C(=O)N[C@@H](CC(N)=O)C(=O)N[C@@H](C)C(=O)N[C@@H](CCC(N)=O)C(=O)N[C@H](C(=O)N[C@@H](CC(C)C)C(=O)N[C@@H](C)C(=O)N[C@@H](CCC(N)=O)C(=O)N[C@H](C(N)=O)C(C)C)[C@@H](C)CC)[C@@H](C)O)[C@@H](C)CC)[C@@H](C)CC)C(C)C)C(C)C [Compound 64] (H-[NMeI]VLSLDVPIGLLQILLEQEKQEKEKQQAK([γGlu-γGlu-γGlu-γGlu-C20 diacid])TNAQILAQV-NH2)
2 | 27 | CCCCCCCCCCCCCCCC(=O)N[C@@H](CCC(=O)NCCCC[C@H](NC(=O)[C@@H](NC(=O)[C@H](C)NC(=O)[C@H](CCC(N)=O)NC(=O)[C@H](CCC(N)=O)NC(=O)[C@H](CCCCN)NC(=O)[C@H](CCC(=O)O)NC(=O)[C@H](CCCCN)NC(=O)[C@H](CCC(=O)O)NC(=O)[C@H](CCC(N)=O)NC(=O)[C@H](CCCCN)NC(=O)[C@H](CCC(=O)O)NC(=O)[C@H](CCC(N)=O)NC(=O)[C@H](CCC(=O)O)NC(=O)[C@H](CC(C)C)NC(=O)[C@H](CC(C)C)NC(=O)[C@@H](NC(=O)[C@H](CCC(N)=O)NC(=O)[C@H](CC(C)C)NC(=O)[C@H](CC(C)C)NC(=O)CNC(=O)[C@@H](NC(=O)[C@@H]1CCCN1C(=O)[C@@H](NC(=O)[C@H](CC(=O)O)NC(=O)[C@H](CC(C)C)NC(=O)[C@H](CO)NC(=O)[C@H](CC(C)C)NC(=O)[C@@H](NC(=O)[C@@H](N)[C@@H](C)CC)C(C)C)C(C)C)[C@@H](C)CC)[C@@H](C)CC)[C@@H](C)O)C(=O)N[C@@H](CC(N)=O)C(=O)N[C@@H](C)C(=O)N[C@@H](CCCNC(=N)N)C(=O)N[C@H](C(=O)N[C@@H](CC(C)C)C(=O)N[C@@H](C)C(=O)N[C@@H](CCCNC(=N)N)C(=O)N[C@H](C(N)=O)C(C)C)[C@@H](C)CC)C(=O)O [Compound 39] (H-IVLSLDVPIGLLQILLEQEKQEKEKQQATK([γGlu-Palmitoyl])NARILARV-NH2)

— patent publication US10894817B2, “Fatty acid modified urocortin-2 analogs for the treatment of diabetes and chronic kidney disease” (priority 2016, dated 2021)
